We go through 42 targets from the supplement of paper PMC12463676, “Small-molecule dissolution of stress granules by redox modulation benefits ALS models” (Nature Chemical Biology, 2025).

Compound in one assay: NC(=O)CCCCC1CCSS1 [lipoamide]
The assay is described as follows: thermal stability z-score vs DMSO; higher = more thermally stabilized by treatment. Particulars: HeLa, lipoamide concentration 100 µM. How it is done:
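Cellular thermal proteome profiling in HeLa cells. Cells were treated with 100 µM lipoamide for 1 h, with or without 1 mM arsenate for a further 1 h, then heated to ten temperatures (37-66.3 °C), and soluble protein was quantified by TMT mass spectrometry relative to 0.1% DMSO controls. The thermal stability score (sum of log2 fold changes minus the abundance score) was transformed to a z-score; mean of n = 3 experiments.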

Compound in a further assay: O=[As]([O-])(O)O.[K+] [potassium arsenate]
The assay is described as above. Particulars: HeLa; arsenate concentration 1 mM. On the procedure: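 Cellular thermal proteome profiling in HeLa cells treated with 1 mM arsenate for 1 h (DMSO pretreatment), heated to ten temperatures (37-66.3 °C). Soluble protein was quantified by TMT mass spectrometry relative to DMSO controls; the thermal stability score was transformed to a z-score; mean of n = 3 experiments.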

The mark [1] stands for this setting: arsenate co-treatment: 1 mM arsenate 1 h.
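Note: each temperature applied for 3 min, abundance score taken as mean log2 fold change at the two lowest temperatures, z-score obtained by mean subtraction and division by SD.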

UniProt Q8TBB5, sequence (Q8TBB5 whole entry): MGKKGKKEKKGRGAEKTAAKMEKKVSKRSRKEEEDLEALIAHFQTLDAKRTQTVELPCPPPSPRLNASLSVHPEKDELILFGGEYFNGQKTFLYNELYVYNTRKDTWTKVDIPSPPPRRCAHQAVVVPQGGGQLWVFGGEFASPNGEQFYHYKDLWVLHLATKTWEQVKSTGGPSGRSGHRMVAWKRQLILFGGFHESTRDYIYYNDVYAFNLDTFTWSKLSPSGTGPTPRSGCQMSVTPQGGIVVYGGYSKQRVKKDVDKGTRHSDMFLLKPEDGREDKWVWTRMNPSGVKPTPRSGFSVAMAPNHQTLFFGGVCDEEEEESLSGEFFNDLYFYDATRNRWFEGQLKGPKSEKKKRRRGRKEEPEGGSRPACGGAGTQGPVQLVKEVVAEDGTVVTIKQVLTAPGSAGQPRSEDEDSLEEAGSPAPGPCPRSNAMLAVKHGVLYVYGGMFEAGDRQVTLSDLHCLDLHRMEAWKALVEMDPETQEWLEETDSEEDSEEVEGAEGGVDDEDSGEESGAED
UniProt P27695, sequence (P27695 whole entry): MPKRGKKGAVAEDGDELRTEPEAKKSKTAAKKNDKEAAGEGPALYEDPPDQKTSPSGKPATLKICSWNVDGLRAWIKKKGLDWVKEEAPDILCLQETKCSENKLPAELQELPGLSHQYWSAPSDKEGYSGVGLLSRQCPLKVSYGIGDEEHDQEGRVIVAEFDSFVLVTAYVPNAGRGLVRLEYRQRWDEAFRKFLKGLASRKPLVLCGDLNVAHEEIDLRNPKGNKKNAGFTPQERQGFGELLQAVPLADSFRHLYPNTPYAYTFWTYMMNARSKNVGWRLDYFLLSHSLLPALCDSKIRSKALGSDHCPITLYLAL
UniProt Q7L7X3, sequence (Q7L7X3 whole entry): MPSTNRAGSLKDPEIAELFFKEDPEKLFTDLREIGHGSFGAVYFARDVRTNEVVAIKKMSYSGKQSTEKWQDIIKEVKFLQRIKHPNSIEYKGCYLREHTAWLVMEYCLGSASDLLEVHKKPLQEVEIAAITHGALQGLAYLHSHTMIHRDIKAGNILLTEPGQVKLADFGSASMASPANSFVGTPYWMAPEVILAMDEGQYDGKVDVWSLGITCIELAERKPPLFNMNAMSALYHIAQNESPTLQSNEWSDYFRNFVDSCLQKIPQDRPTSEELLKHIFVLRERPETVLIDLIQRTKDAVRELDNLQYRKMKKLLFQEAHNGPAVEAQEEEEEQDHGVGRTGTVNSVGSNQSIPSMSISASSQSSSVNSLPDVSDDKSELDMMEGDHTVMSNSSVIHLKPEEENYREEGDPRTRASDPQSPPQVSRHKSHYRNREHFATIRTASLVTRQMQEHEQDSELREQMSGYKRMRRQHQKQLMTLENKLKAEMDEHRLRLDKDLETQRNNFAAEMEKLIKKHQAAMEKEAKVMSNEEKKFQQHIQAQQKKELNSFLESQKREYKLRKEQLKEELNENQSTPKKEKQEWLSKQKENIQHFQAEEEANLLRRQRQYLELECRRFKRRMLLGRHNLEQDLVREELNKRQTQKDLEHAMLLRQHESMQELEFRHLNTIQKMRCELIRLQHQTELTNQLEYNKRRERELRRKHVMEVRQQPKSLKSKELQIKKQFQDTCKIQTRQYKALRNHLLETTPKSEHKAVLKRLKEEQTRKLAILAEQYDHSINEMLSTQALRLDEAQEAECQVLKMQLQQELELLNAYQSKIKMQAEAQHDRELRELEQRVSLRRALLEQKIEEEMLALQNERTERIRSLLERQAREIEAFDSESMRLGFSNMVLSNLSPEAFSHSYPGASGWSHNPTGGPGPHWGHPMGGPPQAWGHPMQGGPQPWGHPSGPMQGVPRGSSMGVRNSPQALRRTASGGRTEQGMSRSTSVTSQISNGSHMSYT
UniProt P53814, sequence (P53814 whole entry): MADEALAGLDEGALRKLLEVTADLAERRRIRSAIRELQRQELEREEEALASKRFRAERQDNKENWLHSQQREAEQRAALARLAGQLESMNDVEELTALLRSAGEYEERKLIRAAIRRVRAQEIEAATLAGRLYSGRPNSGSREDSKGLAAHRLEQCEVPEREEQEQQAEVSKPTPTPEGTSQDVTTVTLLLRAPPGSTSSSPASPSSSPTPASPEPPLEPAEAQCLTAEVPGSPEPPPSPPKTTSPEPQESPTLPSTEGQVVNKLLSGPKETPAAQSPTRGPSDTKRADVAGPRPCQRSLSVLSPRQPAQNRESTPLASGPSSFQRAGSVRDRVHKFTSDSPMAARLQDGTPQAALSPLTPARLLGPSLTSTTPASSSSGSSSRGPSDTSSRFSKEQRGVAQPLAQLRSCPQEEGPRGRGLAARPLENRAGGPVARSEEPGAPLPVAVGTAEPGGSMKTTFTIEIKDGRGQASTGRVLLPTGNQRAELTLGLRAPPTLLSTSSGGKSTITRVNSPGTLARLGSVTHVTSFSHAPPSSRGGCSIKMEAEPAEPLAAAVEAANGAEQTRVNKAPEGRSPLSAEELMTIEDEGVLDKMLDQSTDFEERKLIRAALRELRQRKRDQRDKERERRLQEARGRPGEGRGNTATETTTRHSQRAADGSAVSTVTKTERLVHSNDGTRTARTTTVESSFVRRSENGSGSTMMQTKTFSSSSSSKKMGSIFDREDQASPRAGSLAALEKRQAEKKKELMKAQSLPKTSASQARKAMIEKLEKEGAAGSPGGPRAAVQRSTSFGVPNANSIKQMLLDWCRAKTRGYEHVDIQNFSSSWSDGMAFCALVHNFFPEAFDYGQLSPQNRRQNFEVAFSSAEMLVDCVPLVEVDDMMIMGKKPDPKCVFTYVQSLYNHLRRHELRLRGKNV
UniProt O60563, sequence (O60563 whole entry): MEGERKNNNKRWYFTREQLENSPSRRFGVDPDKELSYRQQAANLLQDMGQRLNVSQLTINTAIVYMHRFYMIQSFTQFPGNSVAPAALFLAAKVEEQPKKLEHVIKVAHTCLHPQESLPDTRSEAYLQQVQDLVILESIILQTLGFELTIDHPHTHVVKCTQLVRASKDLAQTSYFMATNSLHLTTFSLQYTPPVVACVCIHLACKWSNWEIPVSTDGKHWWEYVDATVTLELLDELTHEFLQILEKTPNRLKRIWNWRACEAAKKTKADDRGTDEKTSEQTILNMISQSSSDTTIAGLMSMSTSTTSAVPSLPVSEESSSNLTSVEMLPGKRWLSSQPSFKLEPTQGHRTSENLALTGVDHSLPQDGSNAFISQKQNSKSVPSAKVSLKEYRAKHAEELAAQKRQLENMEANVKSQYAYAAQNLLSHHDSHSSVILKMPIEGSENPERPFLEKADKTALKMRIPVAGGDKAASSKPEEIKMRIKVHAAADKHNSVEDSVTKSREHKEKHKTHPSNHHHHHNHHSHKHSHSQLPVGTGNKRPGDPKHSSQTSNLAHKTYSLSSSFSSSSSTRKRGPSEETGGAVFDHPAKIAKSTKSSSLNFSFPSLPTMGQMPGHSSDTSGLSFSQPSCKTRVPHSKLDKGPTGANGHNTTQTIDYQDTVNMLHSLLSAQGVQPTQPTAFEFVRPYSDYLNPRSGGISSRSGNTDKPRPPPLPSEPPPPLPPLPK
UniProt P24666, sequence (P24666 whole entry): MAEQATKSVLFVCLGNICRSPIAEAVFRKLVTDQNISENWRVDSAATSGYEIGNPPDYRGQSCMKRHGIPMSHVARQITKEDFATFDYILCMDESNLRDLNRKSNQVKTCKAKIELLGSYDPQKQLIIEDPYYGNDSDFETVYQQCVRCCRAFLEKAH
UniProt Q5BJF2, sequence (Q5BJF2 whole entry): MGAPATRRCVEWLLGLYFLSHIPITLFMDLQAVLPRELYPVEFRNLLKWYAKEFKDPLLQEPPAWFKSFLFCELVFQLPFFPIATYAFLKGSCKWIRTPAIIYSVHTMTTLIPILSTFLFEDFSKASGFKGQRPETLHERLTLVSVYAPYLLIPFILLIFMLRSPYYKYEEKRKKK
UniProt Q9NR12, sequence (Q9NR12 whole entry): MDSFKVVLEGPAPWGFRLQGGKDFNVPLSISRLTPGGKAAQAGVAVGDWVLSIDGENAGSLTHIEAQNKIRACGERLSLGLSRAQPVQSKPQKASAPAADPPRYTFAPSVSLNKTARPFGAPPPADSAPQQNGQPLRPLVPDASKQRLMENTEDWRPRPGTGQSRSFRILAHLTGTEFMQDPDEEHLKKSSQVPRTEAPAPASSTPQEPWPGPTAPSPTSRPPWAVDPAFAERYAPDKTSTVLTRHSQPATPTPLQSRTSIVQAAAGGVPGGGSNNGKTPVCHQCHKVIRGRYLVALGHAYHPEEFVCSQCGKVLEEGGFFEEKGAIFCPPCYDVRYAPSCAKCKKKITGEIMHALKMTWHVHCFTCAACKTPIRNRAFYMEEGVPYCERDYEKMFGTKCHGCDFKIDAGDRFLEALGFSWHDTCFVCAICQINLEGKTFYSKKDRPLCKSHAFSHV
UniProt O00154, sequence (O00154 whole entry): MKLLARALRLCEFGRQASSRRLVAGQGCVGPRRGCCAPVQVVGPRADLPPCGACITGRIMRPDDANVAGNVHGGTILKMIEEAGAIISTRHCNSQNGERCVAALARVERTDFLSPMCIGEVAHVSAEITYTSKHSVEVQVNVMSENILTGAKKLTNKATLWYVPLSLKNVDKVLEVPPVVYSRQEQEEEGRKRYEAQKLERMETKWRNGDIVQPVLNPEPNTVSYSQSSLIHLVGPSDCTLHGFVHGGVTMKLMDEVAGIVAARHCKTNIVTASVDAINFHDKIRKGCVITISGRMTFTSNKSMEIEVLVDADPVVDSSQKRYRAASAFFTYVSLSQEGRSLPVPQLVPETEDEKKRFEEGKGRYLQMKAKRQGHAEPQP
UniProt P58557, sequence (P58557 whole entry): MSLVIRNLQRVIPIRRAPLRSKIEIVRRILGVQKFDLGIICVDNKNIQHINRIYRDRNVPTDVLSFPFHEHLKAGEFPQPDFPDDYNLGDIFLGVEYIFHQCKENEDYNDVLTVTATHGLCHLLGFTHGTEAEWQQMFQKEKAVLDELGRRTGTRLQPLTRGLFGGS

As for PPP1R8 (UniProt Q12972), the thermal stability z-score with lipoamide (setting [1]) was 0.0226; with lipoamide (arsenate co-treatment: none), -0.142; in the assay with potassium arsenate it was 0.412.
The like results for YBEY (UniProt P58557) were, in that order, -0.077, 0.169 and 0.131.
Consider POLG (UniProt P54098), for which the thermal stability z-score was determined as 0.0493 in the assay with lipoamide (setting [1]), 0.0533 with lipoamide (arsenate co-treatment: none) and 0.0154 with potassium arsenate.
As for ACOT7 (UniProt O00154), the results for the thermal stability z-score with lipoamide (setting [1]), with lipoamide (arsenate co-treatment: none) and with potassium arsenate were 0.237, 0.304 and -0.151, respectively.
Take RPS9 (UniProt P46781): the figures for the thermal stability z-score in the assay with lipoamide (setting [1]), in the assay with lipoamide (arsenate co-treatment: none) and with potassium arsenate were 0.28, 0.125 and -1.03, respectively.
As to CNP (UniProt P09543), the thermal stability z-score was 1.14 with lipoamide (setting [1]), 0.855 with lipoamide (arsenate co-treatment: none) and -0.287 in the assay with potassium arsenate.
Turning to HSPA9 (UniProt P38646), the thermal stability z-score was -1.1 with lipoamide (setting [1]), -0.531 with lipoamide (arsenate co-treatment: none) and -1.36 with potassium arsenate.
The matching figures for NFU1 (UniProt Q9UMS0): 0.559, 0.402 and 0.227.
Turning to KLHDC4 (UniProt Q8TBB5), the values for the thermal stability z-score with lipoamide (setting [1]), with lipoamide (arsenate co-treatment: none) and in the assay with potassium arsenate were -0.895, -0.0677 and -0.251, respectively.
In the case of RBKS (UniProt Q9H477), the thermal stability z-score with lipoamide (setting [1]) is -0.0153; with lipoamide (arsenate co-treatment: none), -0.521; in the assay with potassium arsenate it was 0.335.
Regarding TP53RK (UniProt Q96S44), the figures for the thermal stability z-score with lipoamide (setting [1]), with lipoamide (arsenate co-treatment: none) and with potassium arsenate were 0.0309, -0.743 and -0.367, respectively.
Regarding MTX2 (UniProt O75431), the thermal stability z-score is -0.388 with lipoamide (setting [1]), -0.267 in the assay with lipoamide (arsenate co-treatment: none) and 0.0221 in the assay with potassium arsenate.
In the case of TAOK1 (UniProt Q7L7X3), the figures for the thermal stability z-score in the assay with lipoamide (setting [1]), with lipoamide (arsenate co-treatment: none) and with potassium arsenate were -0.503, -0.204 and -0.658, respectively.
Consider CCNT1 (UniProt O60563), for which the thermal stability z-score in the assay with lipoamide (setting [1]) turned out to be 0.149; with lipoamide (arsenate co-treatment: none) it was 0.145; with potassium arsenate, 0.178.
For the target LHPP (UniProt Q9H008), the thermal stability z-score was found to be 1.03 in the assay with lipoamide (setting [1]), 0.991 in the assay with lipoamide (arsenate co-treatment: none) and 0.146 with potassium arsenate.
With NUP107 (UniProt P57740), the thermal stability z-score with lipoamide (setting [1]) is -0.163; with lipoamide (arsenate co-treatment: none) it was -0.0082; with potassium arsenate, 0.77.
As for TMEM97 (UniProt Q5BJF2), the thermal stability z-score with lipoamide (setting [1]) was 0.385; with lipoamide (arsenate co-treatment: none) it was 0.189; in the assay with potassium arsenate, 0.108.
COA7 (UniProt Q96BR5): the thermal stability z-score in the assay with lipoamide (setting [1]) was 0.203; with lipoamide (arsenate co-treatment: none) it was 0.0661; with potassium arsenate it was -0.364.
The matching figures for STIM1 (UniProt Q13586): -1.28, -1.03 and 0.0811.
SPTLC1 (UniProt O15269): the results for the thermal stability z-score with lipoamide (setting [1]), with lipoamide (arsenate co-treatment: none) and in the assay with potassium arsenate were -0.481, -0.72 and 0.833, respectively.
With IGF2R (UniProt P11717), the thermal stability z-score in the assay with lipoamide (setting [1]) was -1.48; in the assay with lipoamide (arsenate co-treatment: none), -0.964; with potassium arsenate, -0.374.
Regarding ITSN2 (UniProt Q9NZM3), the results for the thermal stability z-score in the assay with lipoamide (setting [1]), with lipoamide (arsenate co-treatment: none) and with potassium arsenate were -0.803, -1.23 and -0.725, respectively.
For the target ACP1 (UniProt P24666), the thermal stability z-score is -0.147 in the assay with lipoamide (setting [1]), -0.0266 with lipoamide (arsenate co-treatment: none) and -1.2 in the assay with potassium arsenate.
Turning to PAXBP1 (UniProt Q9Y5B6), the thermal stability z-score was 0.125 with lipoamide (setting [1]), 0.182 in the assay with lipoamide (arsenate co-treatment: none) and 0.0461 with potassium arsenate.
In the case of APEX1 (UniProt P27695), the results for the thermal stability z-score with lipoamide (setting [1]), with lipoamide (arsenate co-treatment: none) and in the assay with potassium arsenate were -0.558, 0.406 and -0.345, respectively.
As to SERPINB5 (UniProt P36952), the thermal stability z-score with lipoamide (setting [1]) was found to be 0.571; in the assay with lipoamide (arsenate co-treatment: none), 0.206; in the assay with potassium arsenate, 0.0156.
For the target PRRC2C (UniProt Q9Y520), the thermal stability z-score in the assay with lipoamide (setting [1]) turned out to be 0.242; with lipoamide (arsenate co-treatment: none) it was 0.174; in the assay with potassium arsenate, 0.0846.
Take SYNCRIP (UniProt O60506): the thermal stability z-score was 0.0582 with lipoamide (setting [1]), 0.179 with lipoamide (arsenate co-treatment: none) and -0.00709 in the assay with potassium arsenate.
For the target DOCK9 (UniProt Q9BZ29), the thermal stability z-score with lipoamide (setting [1]) is -0.191; with lipoamide (arsenate co-treatment: none) it was -0.0295; with potassium arsenate it was -0.457.
Consider SLC26A6 (UniProt Q9BXS9), for which the thermal stability z-score in the assay with lipoamide (setting [1]) was 0.538; with lipoamide (arsenate co-treatment: none) it was 1.4; with potassium arsenate, 0.375.
In the case of ARHGDIA (UniProt P52565), the values for the thermal stability z-score with lipoamide (setting [1]), in the assay with lipoamide (arsenate co-treatment: none) and with potassium arsenate were 0.784, 0.465 and 0.318, respectively.
For C5ORF22 (UniProt Q49AR2), the thermal stability z-score with lipoamide (setting [1]) is -0.259; in the assay with lipoamide (arsenate co-treatment: none) it was 0.324; in the assay with potassium arsenate it was 1.13.
In the case of KIAA1524 (UniProt Q8TCG1), the thermal stability z-score with lipoamide (setting [1]) is -0.00458; with lipoamide (arsenate co-treatment: none), -0.0673; with potassium arsenate, 0.662.
On to SMTN (UniProt P53814), for which the results for the thermal stability z-score with lipoamide (setting [1]), with lipoamide (arsenate co-treatment: none) and in the assay with potassium arsenate were 0.0165, 0.00756 and -0.4, respectively.
PHB2 (UniProt Q99623): the results for the thermal stability z-score with lipoamide (setting [1]), with lipoamide (arsenate co-treatment: none) and in the assay with potassium arsenate were 0.27, 0.289 and 0.108, respectively.
The like results for BIRC6 (UniProt Q9NR09) were, in that order, -0.51, -0.149 and 0.194.
ALG14 (UniProt Q96F25): the thermal stability z-score with lipoamide (setting [1]) was -0.0836; with lipoamide (arsenate co-treatment: none), -0.394; with potassium arsenate, -0.257.
As to RPL30 (UniProt P62888), the thermal stability z-score is 0.771 with lipoamide (setting [1]), 0.183 with lipoamide (arsenate co-treatment: none) and -0.666 with potassium arsenate.
For SRGN (UniProt P10124), the thermal stability z-score in the assay with lipoamide (setting [1]) was -0.234; in the assay with lipoamide (arsenate co-treatment: none), 0.0347; in the assay with potassium arsenate, -0.673.
The matching figures for MMAB (UniProt Q96EY8): -1.28, -1.35 and -0.58.
For PDLIM7 (UniProt Q9NR12), the thermal stability z-score with lipoamide (setting [1]) was -0.856; with lipoamide (arsenate co-treatment: none) it was -0.95; in the assay with potassium arsenate it was -1.12.
As for CDH10 (UniProt Q9Y6N8), the thermal stability z-score with lipoamide (setting [1]) turned out to be 0.493; with lipoamide (arsenate co-treatment: none), 0.14; with potassium arsenate, 1.02.
